Measurements as given in US20120132797A1, “MEANS AND METHODS FOR DIAGNOSING THYROID DISORDERS” (BASF SE, priority 2009, published 2012).
Values joined by “and” are separate entries in the source; they are usually repeats but may differ in a detail not shown here. Equal values may be shown once.

Tested on: Wistar (Crl:WI(Han)) rats
Test: Mass spectrometry-based plasma metabolite profiling of rats treated with known inducers of thyroid function impairment
Format: in vivo, rat
Settings: ratio of group medians vs controls
How it was run: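 Rats aged 10-11 weeks, 5/sex/dose vs 10/sex controls, dosed at low and high levels; retro-orbital plasma taken under isoflurane on days 7, 14 and 28 after 16-20 h fast. Polar and non-polar fractions profiled by GC-MS (derivatised) and LC-MS/MS (MRM plus full scan), normalised to pool samples; Welch t-test by sex and day gives p-values and median ratios.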

[1] = female rats, fh7 (study day 7), Table 1
[2] = female rats, fh7 (study day 7), Table 1, first listing
[3] = female rats, fh7 (study day 7), Table 1, second listing
[4] = female rats, fh14 (study day 14), Table 1
[5] = female rats, fh14 (study day 14), Table 1, first listing
[6] = female rats, fh14 (study day 14), Table 1, second listing
[7] = female rats, fh28 (study day 28), Table 1
[8] = female rats, fh28 (study day 28), Table 1, first listing
[9] = female rats, fh28 (study day 28), Table 1, second listing
[10] = male rats, mh7 (study day 7), Table 2
[11] = male rats, mh14 (study day 14), Table 2
[12] = male rats, mh28 (study day 28), Table 2
[13] = male rats, mh7 (study day 7), Table 4
[14] = male rats, mh14 (study day 14), Table 4
[15] = male rats, mh28 (study day 28), Table 4

S=C1NCCN1 [Ethylenethiourea]
5-O-Methylsphingosine [1]: 1.29 and 1.20 | Asparagine [1]: 1.06 and 1.35 | Behenic acid (C22:0) [1]: 1.48 and 1.27 | Citrate [1]: 0.89 and 0.78 | Docosahexaenoic acid (C22:cis[4,7,10,13,16]6) [1]: 1.12 and 1.29 | Glycine [1]: 1.21 and 1.09 | Ketoleucine [1]: 0.93 and 0.84 | Lysophosphatidylcholine (C18:2) [1]: 1.08 | Phosphatidylcholine (C16:1, C18:2) [1]: 1.43 and 1.26 | Phosphatidylcholine (C18:2, C20:4) [1]: 1.09 and 1.02 | Pyruvate [1]: 1.29 and 0.74 | Tricosanoic acid (C23:0) [1]: 1.38 and 1.44 | erythro-Sphingosine [1]: 1.46 and 1.39 | threo-Sphingosine [1]: 1.35 and 1.58 | Sphingomyelin (d18:1, C16:0) [2]: 1.71 and 1.62 | Sphingomyelin (d18:1, C16:0) [3]: 1.29 and 1.46 | 5-O-Methylsphingosine [4]: 1.56 and 1.59 | Asparagine [4]: 1.31 and 1.27 | Behenic acid (C22:0) [4]: 1.29 and 1.69 | Citrate [4]: 0.85 and 0.86 | Docosahexaenoic acid (C22:cis[4,7,10,13,16]6) [4]: 1.45 and 1.24 | Glycine [4]: 1.24 and 1.18 | Ketoleucine [4]: 0.84 and 0.82 | Lysophosphatidylcholine (C18:2) [4]: 1.19 and 1.17 | Phosphatidylcholine (C16:1, C18:2) [4]: 1.43 and 1.54 | Phosphatidylcholine (C18:2, C20:4) [4]: 1.15 and 1.09 | Pyruvate [4]: 0.79 and 1.14 | Tricosanoic acid (C23:0) [4]: 1.52 and 1.30 | erythro-Sphingosine [4]: 1.71 and 1.98 | threo-Sphingosine [4]: 1.47 and 1.61 | Sphingomyelin (d18:1, C16:0) [5]: 1.43 and 1.55 | Sphingomyelin (d18:1, C16:0) [6]: 1.06 and 1.34 | 5-O-Methylsphingosine [7]: 1.63 and 1.59 | Asparagine [7]: 1.26 and 0.84 | Behenic acid (C22:0) [7]: 1.69 and 1.27 | Citrate [7]: 0.70 and 0.91 | Docosahexaenoic acid (C22:cis[4,7,10,13,16]6) [7]: 1.22 and 1.11 | Glycine [7]: 1.32 and 1.01 | Ketoleucine [7]: 0.88 and 0.74 | Lysophosphatidylcholine (C18:2) [7]: 1.10 and 1.23 | Phosphatidylcholine (C16:1, C18:2) [7]: 1.41 and 1.30 | Phosphatidylcholine (C18:2, C20:4) [7]: 1.06 and 1.04 | Pyruvate [7]: 0.69 and 1.04 | Tricosanoic acid (C23:0) [7]: 1.42 and 1.05 | erythro-Sphingosine [7]: 1.51 and 1.35 | threo-Sphingosine [7]: 1.51 and 1.26 | Sphingomyelin (d18:1, C16:0) [8]: 1.70 and 1.38 | Sphingomyelin (d18:1, C16:0) [9]: 1.16 and 1.07 | 3-O-Methylsphingosine [10]: 2.26 | 5-O-Methylsphingosine [10]: 2.36 | 14-Methyl-Pentadecanoic acid [10]: 0.98 | 17-Methyloctadecanoic acid [10]: 0.97 | Arginine [10]: 1.24 | Cholesterol [10]: 1.74 | Citrate [10]: 0.86 | Dihom-gamma-Linolenic acid (C20:cis[8,11,14]3) [10]: 2.34 | Lignoceric acid (C24:0) [10]: 1.94 | Phytosphingosine [10]: 1.53 | Sphingomyelin (d18:1, C16:0) [10]: 1.65 | Tricosanoic acid (C23:0) [10]: 1.67 | alpha-Tocopherol [10]: 2.58 | erythro-Sphingosine [10]: 2.06 | threo-Sphingosine [10]: 2.05 | Glutamate (male rats, mh7 (study day 7), Table 2, first listing): 1.07 | Glutamate (male rats, mh7 (study day 7), Table 2, second listing): 1.15 | 3-O-Methylsphingosine [11]: 2.34 | 5-O-Methylsphingosine [11]: 2.37 | 14-Methyl-Pentadecanoic acid [11]: 0.96 | 17-Methyloctadecanoic acid [11]: 0.83 | Arginine [11]: 1.30 | Cholesterol [11]: 2.25 | Citrate [11]: 0.81 | Dihom-gamma-Linolenic acid (C20:cis[8,11,14]3) [11]: 1.84 | Lignoceric acid (C24:0) [11]: 1.66 | Phytosphingosine [11]: 1.67 | Sphingomyelin (d18:1, C16:0) [11]: 1.69 | Tricosanoic acid (C23:0) [11]: 2.01 | alpha-Tocopherol [11]: 2.99 | erythro-Sphingosine [11]: 2.06 | threo-Sphingosine [11]: 2.03 | Glutamate (male rats, mh14 (study day 14), Table 2, first listing): 0.73 | Glutamate (male rats, mh14 (study day 14), Table 2, second listing): 0.82 | 3-O-Methylsphingosine [12]: 2.91 | 5-O-Methylsphingosine [12]: 2.78 | 14-Methyl-Pentadecanoic acid [12]: 0.77 | 17-Methyloctadecanoic acid [12]: 0.89 | Arginine [12]: 1.20 | Cholesterol [12]: 1.98 | Citrate [12]: 0.64 | Dihom-gamma-Linolenic acid (C20:cis[8,11,14]3) [12]: 2.68 | Lignoceric acid (C24:0) [12]: 2.07 | Phytosphingosine [12]: 2.17 | Sphingomyelin (d18:1, C16:0) [12]: 1.79 | Tricosanoic acid (C23:0) [12]: 2.39 | alpha-Tocopherol [12]: 3.13 | erythro-Sphingosine [12]: 2.29 | threo-Sphingosine [12]: 2.05 | Glutamate (male rats, mh28 (study day 28), Table 2, first listing): 0.70 | Glutamate (male rats, mh28 (study day 28), Table 2, second listing): 0.77

N#Cc1ccc(CC(=NNC(=O)Nc2ccc(OC(F)(F)F)cc2)c2cccc(C(F)(F)F)c2)cc1 (mixture of isomers) [Metaflumizone]
5-O-Methylsphingosine [1]: 0.99 | Asparagine [1]: 0.75 | Behenic acid (C22:0) [1]: 1.12 | Citrate [1]: 0.84 | Docosahexaenoic acid (C22:cis[4,7,10,13,16]6) [1]: 1.52 | Glycine [1]: 0.93 | Ketoleucine [1]: 0.97 | Lysophosphatidylcholine (C18:2) [1]: 0.88 | Phosphatidylcholine (C16:1, C18:2) [1]: 1.14 | Phosphatidylcholine (C18:2, C20:4) [1]: 1.14 | Pyruvate [1]: 0.64 | Tricosanoic acid (C23:0) [1]: 1.28 | erythro-Sphingosine [1]: 1.25 | threo-Sphingosine [1]: 1.29 | Sphingomyelin (d18:1, C16:0) [2]: 1.29 | Sphingomyelin (d18:1, C16:0) [3]: 0.97 | 5-O-Methylsphingosine [4]: 1.42 | Asparagine [4]: 0.57 | Behenic acid (C22:0) [4]: 1.28 | Citrate [4]: 0.62 | Docosahexaenoic acid (C22:cis[4,7,10,13,16]6) [4]: 2.54 | Glycine [4]: 0.97 | Ketoleucine [4]: 0.81 | Lysophosphatidylcholine (C18:2) [4]: 1.20 | Phosphatidylcholine (C16:1, C18:2) [4]: 1.40 | Phosphatidylcholine (C18:2, C20:4) [4]: 1.16 | Pyruvate [4]: 0.54 | Tricosanoic acid (C23:0) [4]: 1.41 | erythro-Sphingosine [4]: 1.50 | threo-Sphingosine [4]: 1.27 | Sphingomyelin (d18:1, C16:0) [5]: 1.45 | Sphingomyelin (d18:1, C16:0) [6]: 1.10 | 5-O-Methylsphingosine [7]: 2.07 | Asparagine [7]: 1.17 | Behenic acid (C22:0) [7]: 2.03 | Citrate [7]: 0.88 | Docosahexaenoic acid (C22:cis[4,7,10,13,16]6) [7]: 1.98 | Glycine [7]: 1.63 | Ketoleucine [7]: 0.81 | Lysophosphatidylcholine (C18:2) [7]: 1.11 | Phosphatidylcholine (C16:1, C18:2) [7]: 1.86 | Phosphatidylcholine (C18:2, C20:4) [7]: 1.20 | Pyruvate [7]: 0.72 | Tricosanoic acid (C23:0) [7]: 2.56 | erythro-Sphingosine [7]: 1.82 | threo-Sphingosine [7]: 1.89 | Sphingomyelin (d18:1, C16:0) [8]: 1.38 | Sphingomyelin (d18:1, C16:0) [9]: 1.15

Cc1cccc(C)c1N(Cn1cccn1)C(=O)CCl [Metazachlor]
Behenic acid (C22:0) [13]: 1.92 | Cholesterol [13]: 1.71 | Citrate [13]: 0.99 | Cytosine [13]: 0.64 | Galactose, lipid fraction [13]: 1.81 | Glycerol phosphate [13]: 1.63 | Glycine [13]: 1.12 | Lignoceric acid (C24:0) [13]: 1.60 | Mannose [13]: 1.22 | Nervonic acid C24:(cis[15]1) [13]: 3.17 | Phospha-tidylcholine (C18:0, 18:2) [13]: 1.40 | Sphingomyelin (d18:1, C16:0) [13]: 2.54 | Stearic acid (C18:0) [13]: 1.45 | Threonic acid [13]: 1.16 | dihomo-gamma-Linolenic acis (C20:cis[8,11,14]3) [13]: 2.41 | erythro-Sphingosine [13]: 2.31 | myo-Inositol-2-phosphate [13]: 2.17 | threo-Sphingosine [13]: 2.05 | Behenic acid (C22:0) [14]: 2.47 | Cholesterol [14]: 2.15 | Citrate [14]: 0.94 | Cytosine [14]: 0.75 | Galactose, lipid fraction [14]: 2.27 | Glycerol phosphate [14]: 2.20 | Glycine [14]: 1.10 | Lignoceric acid (C24:0) [14]: 2.38 | Mannose [14]: 1.37 | Nervonic acid C24:(cis[15]1) [14]: 4.00 | Phospha-tidylcholine (C18:0, 18:2) [14]: 1.55 | Sphingomyelin (d18:1, C16:0) [14]: 2.36 | Stearic acid (C18:0) [14]: 2.36 | Threonic acid [14]: 1.25 | dihomo-gamma-Linolenic acis (C20:cis[8,11,14]3) [14]: 5.18 | erythro-Sphingosine [14]: 3.47 | myo-Inositol-2-phosphate [14]: 4.01 | threo-Sphingosine [14]: 3.22 | Behenic acid (C22:0) [15]: 2.05 | Cholesterol [15]: 2.43 | Citrate [15]: 1.08 | Cytosine [15]: 0.66 | Galactose, lipid fraction [15]: 2.57 | Glycerol phosphate [15]: 2.36 | Glycine [15]: 1.26 | Lignoceric acid (C24:0) [15]: 2.11 | Mannose [15]: 1.46 | Nervonic acid C24:(cis[15]1) [15]: 3.63 | Phospha-tidylcholine (C18:0, 18:2) [15]: 1.51 | Sphingomyelin (d18:1, C16:0) [15]: 2.32 | Stearic acid (C18:0) [15]: 2.59 | Threonic acid [15]: 1.36 | dihomo-gamma-Linolenic acis (C20:cis[8,11,14]3) [15]: 3.36 | erythro-Sphingosine [15]: 3.68 | myo-Inositol-2-phosphate [15]: 2.79 | threo-Sphingosine [15]: 3.54
